Reference: paper PMC3467072 (Nucleic Acids Research, 2012)

Tests used:
Assay type in all cases: binding, Mycobacterium tuberculosis
[1] = test system: Rv3066 mutant W80A
[2] = test system: Rv3066 mutant N112A
[3] = test system: Rv3066 mutant W131A

CC[n+]1c(-c2ccccc2)c2cc(N)ccc2c2ccc(N)cc21 [ethidium, ethidium bromide]
three to four times: Decrease of affinity for ethidium binding, W80A versus wild-type [1] | Decrease of affinity for ethidium binding, N112A versus wild-type [2] | Decrease of affinity for ethidium binding, W131A versus wild-type [3]
